# Measurements reported in publication PMC6225118 (2018).
# Columns and labels:
# [1] = test system: FCEB25wtT (DNA, G4) AAGGGTGGGTGTAAGTGTGGGTGGGT; assay: FRET melting; conditions: 1 mM K+, 99 mM Li+; 10 mM lithium cacodylate pH 7.2; 0.2 µM DNA, 1 µM compound
# [2] = test system: 22AG (DNA, G4) AGGGTTAGGGTTAGGGTTAGGG; assay: CD titration; conditions: 100 mM K+; 10 mM lithium cacodylate pH 7.2, 20 °C, 5 µM DNA
# [3] = test system: F21CTAT (DNA, G4) GGGCTAGGGCTAGGGCTAGGG; assay: FRET melting; conditions: 10 mM K+, 90 mM Li+; 10 mM lithium cacodylate pH 7.2; 0.2 µM DNA, 1 µM compound
# [4] = test system: 22CTA (DNA, G4) AGGGCTAGGGCTAGGGCTAGGG; assay: G4-FID, thiazole orange displacement; conditions: 10 mM lithium cacodylate pH 7.4, 20 °C; partial displacement, saturates at 40–60%
# [5] = test system: Myc22 (c-myc) (DNA, G4) TGAGGGTGGGTAGGGTGGGTAA; assay: G4-FID, thiazole orange displacement; conditions: 10 mM lithium cacodylate pH 7.4, 20 °C; partial displacement, up to 60%
# [6] = test system: FCEB25L111TT (DNA, G4) AAGGGTGGGTGGGTGGGT; assay: FRET melting; conditions: 1 mM K+, 99 mM Li+; 10 mM lithium cacodylate pH 7.2; 0.2 µM DNA, 1 µM compound
# [7] = test system: FKit2T (DNA, G4) GGGCGGGCGCGAGGGAGGGG; assay: FRET melting; conditions: 10 mM K+, 90 mM Li+; 10 mM lithium cacodylate pH 7.2; 0.2 µM DNA, 1 µM compound
# [8] = test system: ds26 (DNA, duplex) CAATCGGATCGAATTCGATCCGATTG; assay: G4-FID, thiazole orange displacement; conditions: 10 mM lithium cacodylate pH 7.4, 20 °C, 0.25 µM DNA; up to 10 equivalents
# [9] = test system: 22AG (DNA, G4) AGGGTTAGGGTTAGGGTTAGGG; assay: CD titration, 260 nm, Hill1 fit; conditions: 100 mM Na+; apparent; 10 mM lithium cacodylate pH 7.2, 20 °C, 5 µM DNA
# [10] = test system: FMycT (DNA, G4) TTGAGGGTGGGTAGGGTGGGTAA; assay: FRET melting; conditions: 1 mM K+, 99 mM Li+; 10 mM lithium cacodylate pH 7.2; 0.2 µM DNA, 1 µM compound
# [11] = test system: FBcl2T (DNA, G4) AGGGGCGGGCGCGGGAGGAAGGGGGCGGGAGCGGGGCTG; assay: FRET melting; conditions: 10 mM K+, 90 mM Li+; 10 mM lithium cacodylate pH 7.2; 0.2 µM DNA, 1 µM compound
# [12] = test system: F21T (DNA, G4) GGGTTAGGGTTAGGGTTAGGG; assay: FRET melting; conditions: 10 mM lithium cacodylate pH 7.2, 0.2 µM DNA, 1 µM compound
Compound,ΔTm [1] [°C],binding [2],ΔTm [3] [°C],binding [4],binding [5],ΔTm [6] [°C],ΔTm [7] [°C],binding [8],Kd [9] [µM],ΔTm [10] [°C],ΔTm [11] [°C],"ΔTm ([12]; 10 mM K+, 90 mM Li+) [°C]",ΔTm ([12]; 100 mM Na+) [°C]
Cc1nc(-c2cccc(-c3noc(-c4cccc(-c5nc(-c6cccc(-c7noc(C)n7)n6)no5)c4)n3)n2)no1,0.9 ± 0.7,yes,4.1 ± 0.1,yes,yes,0.9 ± 0.8,5.3 ± 0.4,no,3.3,3.9 ± 0.9,2.9 ± 0.7,10.8 ± 0.4,16.6 ± 0.8
Cc1nc(-c2cccc(-c3noc(-c4cccc(-c5nc(-c6cccc(-c7noc(C)n7)n6)no5)n4)n3)n2)no1,–,yes,5.5 ± 0.2,yes,yes,–,4.1 ± 0.3,no,3.6,–,–,11.5 ± 0.6,13.8 ± 0.4
